# ChEMBL document CHEMBL5505958, “Optimization of sequence and chiral content enhances therapeutic potential of tilapia piscidin peptides” (Eur J Med Chem, 2024)
# Active and inactive are the calls of the source. The rule behind the calls is not given here.
# Legend:
# Klebsiella pneumoniae [1] = assay: Antimicrobial activity against drug-resistant Klebsiella pneumoniae BAA 2473 infected in C57BL/6 mouse assessed as reduction in bacterial load at 5 mg/kg, po administered for 2 hrs and measured at 24 hrs; format: functional, organism-based; conditions: time 26.0 hrs
# Cell membrane = assay: Induction of outer cell membrane permeabilization in Klebsiella pneumoniae BAA 2473 assessed as increase in fluorescence intensity by PI staining based analysis; format: cell membranes
# Klebsiella pneumoniae [2] = assay: Antibacterial activity against Klebsiella pneumoniae BAA 2473 assessed as inhibition of bacterial growth in presence of meropenem; format: functional
# Klebsiella pneumoniae [3] = assay: Synergistic antibacterial activity against Klebsiella pneumoniae BAA 2473 assessed as fractional inhibitory concentration index in presence of doxycycline by checkerboard assay; format: functional
# Klebsiella oxytoca [4] = assay: Bactericidal activity against Klebsiella oxytoca 13985 assessed as inhibition of bacterial growth incubated for 16 to 20 hrs; format: functional; conditions: time 16-20 hrs
# Klebsiella oxytoca [5] = assay: Antibacterial activity against Klebsiella oxytoca 13985 assessed as inhibition of bacterial growth incubated for 16 to 20 hrs; format: functional; conditions: time 16-20 hrs
# Klebsiella pneumoniae [6] = assay: Antibacterial activity against Klebsiella pneumoniae TL 297 assessed as inhibition of bacterial growth incubated for 16 to 20 hrs; format: functional; conditions: time 16-20 hrs
# Erythrocyte [7] = assay: Hemolytic activity in human Red blood cells assessed as hemolysis at 200 uM incubated for 1 hrs; format: toxicity, cell-based
# Pseudomonas aeruginosa [8] = assay: Antibacterial activity against Pseudomonas aeruginosa 19660 assessed as inhibition of bacterial growth incubated for 16 to 20 hrs; format: functional; conditions: time 16-20 hrs
# Staphylococcus aureus [9] = assay: Antibacterial activity against Staphylococcus aureus 10780 assessed as inhibition of bacterial growth incubated for 16 to 20 hrs; format: functional; conditions: time 16-20 hrs
# Staphylococcus aureus [10] = assay: Bactericidal activity against Staphylococcus aureus 10780 assessed as inhibition of bacterial growth incubated for 16 to 20 hrs; format: functional; conditions: time 16-20 hrs
# Klebsiella pneumoniae [11] = assay: Antimicrobial activity against drug-resistant Klebsiella pneumoniae BAA 2473 infected in C57BL/6 mouse assessed as fold reduction in bacterial load at 5 mg/kg, po administered for 2 hrs and measured at 24 hrs; format: functional
# Klebsiella pneumoniae [12] = assay: Additive antibacterial activity against Klebsiella pneumoniae BAA 2473 assessed as fractional inhibitory concentration index in presence of meropenem by checkerboard assay; format: functional
# Klebsiella pneumoniae [13] = assay: Antibacterial activity against Klebsiella pneumoniae BAA 2473 assessed as inhibition of bacterial growth in presence of doxycycline; format: functional
# Pseudomonas aeruginosa [14] = assay: Bactericidal activity against Pseudomonas aeruginosa 19660 assessed as inhibition of bacterial growth incubated for 16 to 20 hrs; format: functional; conditions: time 16-20 hrs
# Klebsiella pneumoniae [15] = assay: Antibacterial activity against Klebsiella pneumoniae BAA 2473 assessed as meropenem MIC; format: functional
# Klebsiella pneumoniae [16] = assay: Antibacterial activity against Klebsiella pneumoniae BAA 2473 assessed as doxycycline MIC; format: functional
# [17] = Toxicity in C57BL/6 mouse assessed as change in GPT level in liver at 15 mg/kg, iv measured for 7 days; format: organism-based; conditions: in vivo, 168 h, time 7 day
# Klebsiella pneumoniae [18] = assay: Antibacterial activity against Klebsiella pneumoniae BAA 2473 assessed as inhibition of bacterial growth in presence of ciprofloxacin; format: functional
# Erythrocyte [19] = assay: Hemolytic activity in human Red blood cells assessed as hemolysis at 3.13 uM incubated for 1 hrs; format: toxicity, cell-based
# Klebsiella pneumoniae [20] = assay: Antibacterial activity against Klebsiella pneumoniae BAA 2473 assessed as bacterial eradication measured at 2 hrs; format: functional
# [21] = Toxicity in C57BL/6 mouse assessed as survival rate at 12.5 to 15 mg/kg, iv measured for 7 days; format: organism-based; conditions: in vivo, dose 12.5-15 mg/kg, time 7 day
# [22] = Toxicity in C57BL/6 mouse assessed as effect on GOT level in liver upto 7.5 mg/kg, iv measured for 7 days; format: organism-based; conditions: in vivo, 168 h, time 7 day
# [23] = Toxicity in C57BL/6 mouse assessed as effect on BUN level upto 10 mg/kg, iv measured for 7 days; format: organism-based; conditions: in vivo, 168 h, time 7 day
# [24] = Toxicity in C57BL/6 mouse assessed as mortality at 20 mg/kg, iv measured for 2 days; format: organism-based; conditions: in vivo, time 2 day
# [25] = Toxicity in C57BL/6 mouse assessed as change in body weight at 15 mg/kg, iv measured for 7 days; format: organism-based; conditions: in vivo, 168 h, time 7 day
# [26] = Toxicity in C57BL/6 mouse assessed as increase in creatinine level upto 12.5 mg/kg, iv measured for 7 days; format: organism-based; conditions: in vivo, 168 h, time 7 day
# [27] = Toxicity in C57BL/6 mouse assessed as mortality at 5 to 10 mg/kg, iv measured for 7 days; format: organism-based; conditions: in vivo, 168 h, dose 5-10 mg/kg, time 7 day
Compound,Activity (Klebsiella pneumoniae [1]),Activity (Cell membrane),MIC (Klebsiella pneumoniae [2]) [µM],fractional inhibitory concentration index (FICI) (Klebsiella pneumoniae [3]),MBC (Klebsiella oxytoca [4]) [µM],MIC (Klebsiella oxytoca [5]) [µM],MIC (Klebsiella pneumoniae [6]) [µM],Activity (Erythrocyte [7]),MIC (Pseudomonas aeruginosa [8]) [µM],MIC (Staphylococcus aureus [9]) [µM],MBC (Staphylococcus aureus [10]) [µM],fractional inhibitory concentration index (FICI) (Klebsiella pneumoniae [12]),MIC (Klebsiella pneumoniae [13]) [µM],MBC (Pseudomonas aeruginosa [14]) [µM],MIC (Klebsiella pneumoniae [15]) [µM],MIC (Klebsiella pneumoniae [16]) [µM],MIC (Klebsiella pneumoniae [18]) [µM],further results
CC(C)C[C@H](NC(=O)[C@@H](C)NC(=O)[C@@H](CCCCN)NC(=O)[C@H](CC(C)C)NC(=O)[C@@H](CC(C)C)NC(=O)[C@@H](CCCCN)NC(=O)[C@H](CCCCN)NC(=O)[C@@H](CC(C)C)NC(=O)[C@H](N)Cc1ccccc1)C(=O)N[C@H](Cc1ccccc1)C(=O)N[C@H](CO)C(=O)N[C@@H](C)C(=O)N1CCC[C@@H]1C(=O)N[C@H](CCCCN)C(=O)N[C@@H](C)C(=O)N[C@H](CC(C)C)C(=O)N[C@H](CCCCN)C(=O)N[C@@H](CCCNC(=N)N)C(=O)N[C@H](CC(C)C)C(=O)N[C@H](CC(C)C)C(=O)N[C@@H](CCCNC(=N)N)C(=O)N[C@H](CCCNC(=N)N)C(=O)N[C@H](CCCNC(=N)N)C(=O)N[C@@H](CCCNC(=N)N)C(=O)N[C@@H](CCCNC(=N)N)C(=O)O,Active,Active,0.78,0.5,3.13,3.13,6.25,Non-Toxic,3.13,12.5,6.25,1.003,0.39,3.13,400,1.56,1.56,fold change (FC) (Klebsiella pneumoniae [11]): ~10; Activity [17]: Non-Toxic
H-FIHHIIGGLFSAGKAIHRLIRRRRR-OH,–,–,–,–,–,–,–,–,–,0.78,0.78,–,–,–,–,–,–,Activity (Erythrocyte [19]): Non-Toxic; Activity (Klebsiella pneumoniae [20]): 100%
CC(C)C[C@H](NC(=O)[C@H](CCCCN)NC(=O)[C@@H](CCCCN)NC(=O)[C@H](CC(C)C)NC(=O)[C@@H](N)Cc1ccccc1)C(=O)N[C@H](CC(C)C)C(=O)N[C@@H](CCCCN)C(=O)N[C@@H](C)C(=O)N[C@H](CC(C)C)C(=O)N[C@@H](Cc1ccccc1)C(=O)N[C@@H](CO)C(=O)N[C@H](C)C(=O)N1CCC[C@H]1C(=O)N[C@@H](CCCCN)C(=O)N[C@H](C)C(=O)N[C@@H](CC(C)C)C(=O)N[C@@H](CCCCN)C(=O)N[C@H](CCCNC(=N)N)C(=O)N[C@@H](CC(C)C)C(=O)N[C@@H](CC(C)C)C(=O)N[C@H](CCCNC(=N)N)C(=O)N[C@@H](CCCNC(=N)N)C(=O)N[C@@H](CCCNC(=N)N)C(=O)N[C@H](CCCNC(=N)N)C(=O)N[C@@H](CCCNC(=N)N)C(=O)O,inactive,Active,0.78,0.375,1.56,1.56,12.5,Non-Toxic,3.13,–,–,1,0.39,3.13,3.12,6.25,0.097,survival at 168 h [21]: 80%; Activity [22]: Non-Toxic; Activity [23]: Non-Toxic; mortality at 48 h [24]: 100%; Activity [25]: Non-Toxic; Activity [26]: Non-Toxic; Activity [27]: Non-Toxic
